Each molecule was assayed on symmetric di-methyl arginine in Z-138 cells (assay: Z-138 Methylation Assay (In Cell Western for symmetric di-methyl arginine and DNA content)). Conditions: Homo sapiens; Z-138 methylation In Cell Western; read-out: ICW EC50.
Assay type: cell-based
Excerpt: [formula] [formula] Where top and bottom are the normally allowed to float, but may be fixed at 100 or 0 respectively in a 3-parameter fit. The Hill Coefficient normally allowed to float but may also be fixed at 1 in a 3-parameter fit. Y is the % inhibition and X is the compound concentration.
RPMI/Glutamax medium, penicillin-streptomycin, heat inactivated fetal bovine serum, and D-PBS were purchased from Life Technologies, Grand Island, N.Y., USA. Odyssey blocking buffer, 800CW goat anti-rabbit IgG (H+L) antibody, and Licor Odyssey infrared scanner were purchased from Licor Biosciences, Lincoln, Nebr., USA. Symmetric di-methyl arginine antibody was purchased from EMD Millipore, Billerica, Mass., USA. 16% Paraformaldehyde was purchased from Electron Microscopy Sciences, Hatfield, Pa., USA.
Cell Treatment, in Cell Western (ICW) for Detection of Symmetric Di-Methyl Arginine and DNA Content.
Z-138 cells were seeded in assay medium at a concentration of 50,000 cells per mL to a 384-well cell culture plate with 50 μL per well. Compound (100 nL) from 384 well source plates was added directly to 384 well cell plate. Plates were incubated at 37° C., 5% CO2 for 96 hours. […] Plates were incubated at room temperature for 30 minutes then incubated at 37° C., 5% CO2 for 5 hours. After the incubation, 40 μL per well of 8% paraformaldehyde in PBS (16% paraformaldahyde was diluted to 8% in PBS) was added to each plate and incubated for 30 minutes. […] Next 30 μL per well of Odyssey blocking buffer were added to each plate and incubated 1 hour at room temperature. Blocking buffer was removed and 20 μL per well of primary antibody was added (symmetric di-methyl arginine diluted 1:100 in Odyssey buffer with 0.1% Tween 20 (v/v)) and plates were incubated overnight (16 hours) at 4° C. Plates were washed 5 times with 100 μL per well of wash buffer. Next 20 μL per well of secondary antibody was added (1:200 800CW goat anti-rabbit IgG (H+L) antibody, 1:1000 DRAQ5 (Biostatus limited) in Odyssey buffer with 0.1% Tween 20 (v/v)) and incubated for 1 hour at room temperature. The plates were washed 5 times with 100 μL per well wash buffer then 1 time with 100 μL per well of water. Plates were allowed to dry at room temperature then imaged on the Licor Odyssey machine which measures integrated intensity at 700 nm and 800 nm wavelengths. Both 700 and 800 channels were scanned.
First, the ratio for each well was determined by:
Each plate included fourteen control wells of DMSO only treatment (minimum inhibition) as well as fourteen control wells for maximum inhibition treated with 3 μM of a reference compound (Background wells). The average of the ratio values for each control type was calculated and used to determine the percent inhibition for each test well in the plate. Reference compound was serially diluted three-fold in DMSO for a total of nine test concentrations, beginning at 3 μM. Percent inhibition was determined and IC50 curves were generated using triplicate wells per concentration of compound.

Row | EC50 [nM] | Compound
1 | 101 to 1000 | CN1CCC(Oc2cncc(C(=O)NC[C@H](O)CN3CCc4ccccc4C3)c2)CC1 [Compound 288]
2 | < 100 | CS(=O)(=O)N1CCC(Oc2cncc(C(=O)NC[C@H](O)CN3CCc4ccccc4C3)c2)CC1 [Compound 290]
3 | 101 to 1000 | O=C(NC[C@H](O)CN1CCc2ccccc2C1)c1cccc2ccccc12 [Compound 295]
4 | < 100 | O=C(NC[C@H](O)CN1CCc2ccccc2C1)c1cncc(NC2COC2)c1 [Compound 299]
5 | < 100 | O=C(NC[C@H](O)CN1CCc2ccccc2C1)c1cncc(NC2CCN(CC(F)(F)F)C2)c1 (some centres unmarked) [Compound 303]
